Source: article PMC11329928, “Design, synthesis and structure-activity relationship (SAR) studies of an unusual class of non-cationic fatty amine-tripeptide conjugates as novel synthetic antimicrobial agents” (Frontiers in Pharmacology, 2024)

Assays:
[1] = RP-HPLC retention time used to determine hydrophobicity; type: physicochemical; conditions: analytical RP-HPLC, C18 Sunfire column (4.6 mm × 150 mm, 3.5 μm); A = 0.05% TFA in water, B = acetonitrile; 10% to 100% B in 20 min then isocratic 100% B 10 min; 217 and 254 nm; used as measure of hydrophobicity
Escherichia coli DH10B = assay: Growth inhibition screening of planktonic cultures (OD550/600); type: cell-based; set-up: key: (+++) full inhibition; (++) partial inhibition; (+) growth retardation; -: (−) no effect; conditions: E. coli DH10B, 50 and 100 μM compound added at T1, OD550/600 followed 10 h, 37°C
Procedure, shortened: (§1)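 Early exponential-phase cultures (OD550/600 c. a. 0.15–0.2) were treated with DICAMs at 50 and 100 μM final, diluted from DMSO stocks into medium, and incubated 10 h at 37°C. Turbidity (OD550/600) was read every 20 min against untreated controls to track growth inhibition and lysis.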

[2] = test system: Pseudomonas aeruginosa PAO1; assay: as above; type: cell-based; set-up: key: (+++) full inhibition; (++) partial inhibition; (+) growth retardation; -: (−) no effect; conditions: P. aeruginosa PAO1, 50 and 100 μM compound added at T1, OD550/600 followed 10 h, 37°C
Procedure, shortened: as §1

Staphylococcus aureus T = assay: as above; type: cell-based; set-up: key: (+++) full inhibition; (++) partial inhibition; (+) growth retardation; -: (−) no effect; conditions: S. aureus T, 50 and 100 μM compound added at T1, OD550/600 followed 10 h, 37°C
Procedure, shortened: as §1

S. pyogenes T = assay: Dose dependence of bacterial viability (CFU counting, Hill fit); type: cell-based, Streptococcus pyogenes; conditions: 2 h treatment, 37°C, Hill fit
Description: First, the substitution of the fatty amino chain of 18 carbon atoms of the reference compound DICAM 2 by either an OMe group (methylated tripeptide DICAM 5) or an amine with 12 carbon atoms (DICAM 9) abolished the activity against all three pathogens. However, the activity remained intact when the chain of the fatty amine of prototypes DICAMs 1 and 4 was two carbon atoms shorter (DICAM 10 and DICAM 12, respectively), based on S. pneumoniae and S. pyogenes results. […] Third, Glu and Ala were tolerated as C-terminal residues of the lipotripeptides. […] In addition, deletion of the C-terminal Glu (DICAM 13) eradicated the activity against S. pneumoniae and S. aureus. However, a delay and small inhibition of S. pyogenes ^T growth was still observed. Fourth, Glu (DICAMs 19 and 20) and Orn (DICAMs 21 and 22) were tolerated as N-terminal residues, with the impact of these modifications being pathogen-dependent. […] SAR studies continued by measuring the dose dependence of DICAM’s activity at T1 with all the compounds found to be active against S. pyogenes or S. aureus in the initial screening, and all but one compound in the case of S. pneumoniae. The OD values of bacterial cultures were monitored after DICAM addition, and the decrease in the number of viable bacteria was measured relative to controls (Figures 4–6; Supplementary Figure S1). As antibacterial efficacy may decline with the bacterium dose in the inoculum ([Belley et al., 2009]; [Udekwu et al., 2009]; [Luca et al., 2013]), the assays were performed using the bacterial concentrations necessary for the fluorescence experiments in Section 2.3 (10^7–10^8 CFU/mL). At these high bacterial densities, MICs were determined as the DICAM concentration at which bacteria neither grow nor are killed (the stationary concentration (SC)), following [Udekwu et al., 2009]. By fitting the logarithmic plot of cell viability decrease vs. the DICAM dose to a Hill function (see Section 5.2.3.1) we were able to determine the maximum variation in viability (Δlogmax = ∆log f - ∆log 0, where ∆log f and ∆log 0 are the upper and lower limits of Δlog) in the assay conditions, the SC concentration (Δlog = 0), the dose required for half-variation in Δlogmax (K 1/2), and the cooperativity of the antimicrobial effect (N H).
Susceptibility to DICAMs was first tested by growth-inhibition assays at 50 and 100 μM of compound. Briefly, working solutions at 5 mM or 10 mM DICAM in pure DMSO were prepared from DICAM stocks (40 mM in pure DMSO) and diluted with fresh culture medium to 5× the desired final concentration. Aliquots (50 µL) of these solutions were added to 200 µL of bacterium cultures grown to early exponential phase (OD550/600 c. a. 0.15–0.2 in sterile 96-well plates (Cultek, Spain). Incubation continued for 10 h at 37°C and turbidity (OD550/600) values were measured every 20 min to monitor growth and lysis, using a VersaMax microplate reader (Molecular Devices; United Kingdom). Next, the activity dependence on DICAM’s dose was examined by measuring the turbidity of treated and untreated cultures as a function of time. Also, the decay of bacterial viability (CFU/mL) at selected times of treatment was assessed by colony counting on LB-agar or TSA plates after overnight incubation at 37°C. By default, 10 μL of 10-fold serially diluted samples were plated, which set the lower detection limit at 10^2 CFU/mL (10^1 CFU/mL when 100 μL of the undiluted sample was seeded).
As antibacterial efficacy may decline with the bacterium dose in the inoculum ([Belley et al., 2009]; [Udekwu et al., 2009]; [Luca et al., 2013]), activity assays were performed using the bacterial concentrations required for the fluorescence experiments in Section 2.3 (10^7–10^8 CFU/mL). At such bacterial densities, MICs were determined as the DICAM concentration at which bacteria neither grow nor are killed under assay conditions (the stationary concentration (SC)), as indicated in Section 2.2. […]

## CCCCCCCCCCCCCCCCCCNC(=O)[C@H](CCC(=O)O)NC(=O)[C@H]1CCCN1C(=O)[C@H](CCCN)NC(=O)OCc1ccccc1 [DICAM 21, Cbz-Orn- Pro -Glu-NH-C18H37]
[1]
  Retention time: 19.70 min
Escherichia coli DH10B
  Growth halt or lysis (50/100 μM), Ec: -
[2]
  Growth halt or lysis (50/100 μM), Pa: -
Staphylococcus aureus T
  Growth halt or lysis (50/100 μM), Sa T: +
S. pyogenes T; BHI medium, added at T1, 10^7–10^8 CFU/mL, CFU vs untreated controls
  SC (stationary concentration, Δlog = 0), S. pyogenes T: ∼10 µM
S. pyogenes T; BHI, read-out: K 1/2 (concentration yielding half-variation in Δlogmax), S. pyogenes T (converted)
  EC50: 38 ± 40 µM
S. pyogenes T; maximum variation in viability, BHI
  Δlogmax, S. pyogenes T: 4 ± 2 logarithmic units
